Measurements: patent US20170119660A1, “PHARMACEUTICAL COMPOSITIONS FOR TRANSMUCOSAL DELIVERY” (Solubest Ltd, priority 2015, published 2017)

Experiments:
[1] = Dissolution test of powders and granules in simulated saliva; assay type: physicochemical; details: drug loading 10 mg/ml
Procedure: The liquid intermediates, containing the active compound(s) and the polymers, were prepared using different size glassware, magnetic plates, peristaltic pump and tubing. The spray-drying process was conducted using Mini Spray Dryer B-290 of Buchi Labortechnik AG. Tablet compression was performed with a Mini 8-D tablet press Dynamic Exim Co. Ltd. Granules preparation was performed with Dynamic Exim dry granulator. […] The quantification was performed using HPLC, Dionex. Appropriate amount of prepared granules or tablets as well as control powders or tablets were dissolved in 250 ml of artificial saliva, at 37° C., with rotation speed of 75 rpm. Simulated saliva solution was prepared according to SS5 solution recipe reported in Marques et al, 2011, Dissolution Technologies, 18, 15-28. The tablets disintegration test was performed in accordance with USP Disintegration Method <701>. […] The drug loading in the first set of experiments was 2.5 mg/ml.

EpiOral™ buccal tissues = experiment: Franz diffusion cell permeability through human buccal tissue; assay type: in vitro ADME; details: 7.5 mg/ml in artificial saliva
Procedure: Permeability studies were performed as follows. The barrier membranes, EpiOral™ representing a highly differentiated, three-dimensional, cultured human buccal tissue equivalent were obtained from MatTek Corp (Ashland, Mass.). Samples were mounted in vertical Franz diffusion cells (PermeGear Inc., Bethlehem, Pa.). […] The fluid in each receptor compartment was maintained at 37±0.5° C. by using a thermostatic water pump (Freed Electric, Haifa, Israel) that circulated water through the jacket surrounding each main chamber. The biological membranes were initially left in the Franz cells for 1 h in order to facilitate their hydration before the experiment. After this period, a 500-μL aliquot of 7.5 mg/ml sumatriptan solution/dispersion in artificial saliva was deposited in each donor compartment. The donor compartment was covered with Parafilm® to prevent evaporation. Receptor solution samples of 300 μL were then collected at 3, 6, 9, 12, 20, 40 and 60 minutes and replaced with 300 μL phosphate buffer, placed on ice and stored at −20° C. until subjected to HPLC or LCMS analysis. Each permeation experiment was conducted as four replicate runs.
The permeability of unformulated sumatriptan base, of API (in the base form) released from the composition of the present invention (Example 3) and of the commercial formulation Imitrex® was tested using EpiOral™ buccal tissues as described in the Methods section. EpiOral™ buccal tissues consist of normal, human-derived epithelial cells that have been cultured to form multilayered, highly differentiated models of the human buccal phenotypes.

[2] = Dissolution test of cannabidiol compositions in FaSSIF; assay type: physicochemical; set-up: unit not given here; details: 200 ml FaSSIF, drug loading 20 mg
Procedure: The liquid intermediates, containing the active compound(s) and the polymers, were prepared using different size glassware, magnetic plates, peristaltic pump and tubing. The spray-drying process was conducted using Mini Spray Dryer B-290 of Buchi Labortechnik AG. Tablet compression was performed with a Mini 8-D tablet press Dynamic Exim Co. Ltd. Granules preparation was performed with Dynamic Exim dry granulator. The dissolution test was performed in accordance with USP Dissolution Method <711> and FDA Dissolution Methods for Drug Products using the paddle apparatus Pharma Test model DT70 equipped with 1L and 250 ml vessels. The quantification was performed using HPLC, Dionex. Appropriate amount of prepared granules or tablets as well as control powders or tablets were dissolved in 250 ml of artificial saliva, at 37° C., with rotation speed of 75 rpm. Simulated saliva solution was prepared according to SS5 solution recipe reported in Marques et al, 2011, Dissolution Technologies, 18, 15-28. The tablets disintegration test was performed in accordance with USP Disintegration Method <701>.
Unformulated cannabidiol (CBD) and composition of the present invention (Example 13) were subjected to a dissolution test in 200 ml of Fasted State Simulating Intestinal Fluid (FaSSIF). The drug loading was 20 mg.

Drug released ([1]; 5 min) | Drug released ([1]; 10 min) | Drug released ([1]; 20 min) | STP Permeability (EpiOral™ buccal tissues; time point 0 min) | STP Permeability (EpiOral™ buccal tissues; time point 3 min) | STP Permeability (EpiOral™ buccal tissues; time point 6 min) | STP Permeability (EpiOral™ buccal tissues; time point 9 min) | STP Permeability (EpiOral™ buccal tissues; time point 12 min) | STP Permeability (EpiOral™ buccal tissues; time point 20 min) | STP Permeability (EpiOral™ buccal tissues; time point 40 min) | STP Permeability (EpiOral™ buccal tissues; time point 60 min) | Structure (SMILES) | Dissolution profile ([2]; Time 0) | Dissolution profile ([2]; Time 10) | Dissolution profile ([2]; Time 20) | Dissolution profile ([2]; Time 30) | Dissolution profile ([2]; Time 45) | Dissolution profile ([2]; Time 60) | Dissolution profile ([2]; Time 90)
13% | 13% | 13% | 0.000 μg/cm^2 | 0.330 μg/cm^2 | 0.736 μg/cm^2 | 0.964 μg/cm^2 | 1.295 μg/cm^2 | 2.671 μg/cm^2 | 6.938 μg/cm^2 | 14.887 μg/cm^2 | CNS(=O)(=O)Cc1ccc2[nH]cc(CCN(C)C)c2c1 [Unformulated sumatriptan, Sumatriptan base] | – | – | – | – | – | – | –
– | – | – | – | – | – | – | – | – | – | – | C=C(C)[C@@H]1CCC(C)=C[C@H]1c1c(O)cc(CCCCC)cc1O [Unformulated CBD, Cannabidiol] | 0 | 1.7 | 2.7 | 3.8 | 5.2 | 6.3 | 8.2
